The subject of the experiment is compound 48/80-induced lethality. Kind of experiment: Protection of rats from compound 48/80-induced lethality. It is filed as in vivo, Male rats of an inbred Wistar strain. The settings on record: Rattus norvegicus, 4 h, read-out: compound 48/80 lethality test rats-ED50. As to the method:
Protection of rats from compound 48/80-induced lethality
The protection from compound 48/80-induced lethal circulatory collapse appears to be a simple way of evaluating quantitatively the antihistaminic activity of test compounds. Male rats of an inbred Wistar strain, weighing 240-260 g were used in the experiment. After overnight starvation the rats were transferred to conditioned laboratories (temp.=21±1° C., relative humidity-65±5%).
The rats were treated subcutaneously or orally with a test compound or with the solvent (NaCl solution, 0.9%). […] Survival after 4 hours is therefore considered to be a safe criterion of a protective effect of drug administration.
The ED50 -values of the compounds of formula (I) and the intermediates of formula (XVIII) are listed in the first column of table 1 and table 2. Said ED50 -values are the values in mg/kg body weight at which the tested compounds protect 50% of the tested animals against compound 48/80-induced lethality.
Regarding `Fc1ccc(Cn2c(NC3CCN(CCNc4ncccn4)CC3)nc3ccncc32)cc1.O=C(O)/C=C/C(=O)O.O=C(O)/C=C/C(=O)O` [Compound 29, 3-[(4-fluorophenyl)methyl]-N-[1-[2-[(2-pyrimidinyl)amino]ethyl]-4-piperidinyl]-3H-imidazo[4,5-c]pyridin-2-amine (E)-2-butenedioate (1:2)], the ED50 worked out at 0.16 mg/kg.
In the case of `Cc1cc(NCCN2CCC(Nc3nc4ccccc4n3Cc3ccc(F)cc3)CC2)nc(N)n1` [Compound 35] it was 0.31 mg/kg.
Regarding `Fc1ccc(Cn2c(NC3CCN(CCc4cnccn4)CC3)nc3ccccc32)cc1` [Compound 101, 1-(4-fluorophenylmethyl)-N-[1-[2-(2-pyrazinyl)ethyl]-4-piperidinyl]-1H-benzimidazol-2-amine], the ED50 turned out to be 0.31 mg/kg.
The same measure for `O=c1cc(Cc2ccccc2)[nH]c(NCCN2CCC(Nc3nc4ccccc4n3Cc3ccc(F)cc3)CC2)n1` [Compound 89, 2-[[2-[4-[[1-[(4-fluorophenyl)methyl]-1H-benzimidazol-2-yl]amino]-1-piperidinyl]ethyl]amino]-6-(phenylmethyl)-4-(1H)-pyrimidinone]: 0.63 mg/kg; for `Fc1ccc(Cn2c(NC3CCN(CCNc4cc(Cl)ncn4)CC3)nc3ccccc32)cc1` [Compound 5]: 0.31 mg/kg; for `Brc1ccc(OCCN2CCC(Nc3nc4ccccc4n3Cc3ccco3)CC2)nc1` [Compound 78, N-[1-[2-[(5-bromo-2-pyridinyl)oxy]ethyl]-4-piperidinyl]-1-(2-furanylmethyl)-1H-benzimidazol-2-amine]: 0.31 mg/kg.
As for `COc1cc(NCCN2CCC(Nc3nc4ccccc4n3Cc3ccc(F)cc3)CC2)ncn1` [Compound 98, 1-[(4-fluorophenyl)methyl]-N-[1-[2-[(6-methoxy-4-pyrimidinyl)amino]ethyl]-4-piperidinyl]-1H-benzimidazol-2-amine], the ED50 worked out at 0.16 mg/kg.
On to `Fc1ccc(Cn2c(NC3CCN(CCCNc4ncccn4)CC3)nc3ccccc32)cc1` [Compound 4], for which the ED50 amounted to 0.16 mg/kg.
The same measure for `Fc1ccc(Cn2c(NC3CCN(CCOc4ccc(Br)cn4)CC3)nc3ccccc32)cc1` [Compound 82, N-[1-[2-[(5-bromo-2-pyridinyl)oxy]ethyl]-4-piperidinyl]-1-[(4-fluorophenyl)methyl]-1H-benzimidazol-2-amine]: 0.16 mg/kg; for `Fc1ccc(Cn2c(NC3CCN(C4CCN(c5ncccn5)CC4)CC3)nc3ccccc32)cc1` [Compound 6]: 1.25 mg/kg; for `Cc1nc2ccccc2nc1OCCN1CCC(Nc2nc3ccccc3n2Cc2ccc(F)cc2)CC1` [Compound 80, 1-[(4-fluorophenyl)methyl]-N-[1-[2-[(3-methyl-2-quinoxalinyl)oxy]ethyl]-4-piperidinyl]-1H-benzimidazol-2-amine]: 2.5 mg/kg.
`c1cnc(NCCN2CCC(Nc3nc4ccccc4n3Cc3cccnc3)CC2)nc1` [Compound 17]: the ED50 came to 1.25 mg/kg.
The same measure for `Fc1ccc(Cn2c(NC3CCN(CCNc4ccc5ccccc5n4)CC3)nc3ccccc32)cc1` [Compound 44]: 0.31 mg/kg; for `NCCN1CCC(Nc2nc3cnccc3n2Cc2ccc(F)cc2)CC1` [Intermediate 111]: 0.16 mg/kg.
The same measure for `Fc1ccc(Cn2c(NC3CCN(CCNc4ncccn4)CC3)nc3cnccc32)cc1` [Compound 26, 1[(4-fluorophenyl)methyl]-N-[1-[2-(2-pyrimidinylamino]ethyl]-4-piperidinyl]1H-imidazo[4,5-c]pyridin-2-amine]: 0.08 mg/kg; for `N#CCN1CCC(Nc2nc3cnccc3n2Cc2ccc(F)cc2)CC1` [Intermediate 81]: 0.63 mg/kg.
In the case of `OCCN1CCC(Nc2nc3cnccc3n2Cc2ccc(F)cc2)CC1` [CH2 CH2 OH 4-FC6 H4 CH2 -- 3 base] it was 0.31 mg/kg; in that of `O=[N+]([O-])c1cccnc1N1CCC(N2CCC(Nc3nc4ccccc4n3Cc3ccc(F)cc3)CC2)CC1` [Compound 11], 0.63 mg/kg.

The values above are taken from patent US4556660A, “N-(Bicyclic heterocyclyl)-4-piperidinamines” (Janssen Pharmaceutica N.V., priority 1983, dated 1985).
